Experimental findings from PubChem BioAssay AID540318 (Broad Institute, 2011) are described below.

Broadly, the AC50 is the concentration giving half of the maximal activity seen.

The test system of the experiment is BJeLR fibroblasts viability, Alamar Blue fluorescence, 48 h. Put plainly: viability loss in BJeLR fibroblasts, dose response, cell-based, Ras selective lethality, dry powder, set 4 (AID 540318).
Regarding `Cc1onc(CC(=O)N2CCN(C(c3ccc(F)cc3)c3ccc(F)cc3)CC2)c1[N+](=O)[O-]`, the AC50 is 28 µM.
In the case of `Cc1onc(C(=O)N2CCN(C(c3ccccc3)c3ccc(Cl)cc3)CC2)c1[N+](=O)[O-]` (configuration not stated), the AC50 is 0.706 µM.
As for `Cc1onc(C(=O)N2CCN(C(c3ccc(F)cc3)c3ccc(F)cc3)CC2)c1[N+](=O)[O-]`, the figure is 0.934 µM; as for `CCOc1ccccc1-n1c(C(C)N2CCN(C(=O)COc3ccc(Cl)cc3)CC2)nc2ccccc2c1=O` (configuration not stated), 1.43 µM; as for `O=C(NCCNC(c1ccccc1)c1ccccc1)c1ccc([N+](=O)[O-])o1`, 25.9 µM.
Consider `COC(=O)c1ccc([C@@H]2c3[nH]c4ccccc4c3C[C@@H](C(=O)OC)N2C(=O)CCl)cc1`, for which the AC50 was 0.79 µM.
`O=C(c1cc([N+](=O)[O-])ccn1)N1CCN(C(c2ccccc2)c2ccccc2)CC1`: the AC50 was 37.1 µM.
As for `Cc1onc(C(=O)N2CCN(C(c3ccccc3)c3ccccc3)CC2)c1[N+](=O)[O-]`, the figure is 2.81 µM.
With `COc1ccc(C(c2ccc(OC)cc2)N2CCN(C(=O)c3noc(C)c3[N+](=O)[O-])CC2)cc1`, the AC50 was 4.29 µM.
Regarding `O=C(c1ccc([N+](=O)[O-])o1)N1CCN(C(c2ccc(F)cc2)c2ccc(F)cc2)CC1`, the AC50 was 34.9 µM.
As for `Cc1onc(C(=O)N2CCN(C(c3ccc(Cl)cc3)c3ccc(Cl)cc3)CC2)c1[N+](=O)[O-]`, the figure is 0.364 µM; as for `Cc1onc(C(=O)N2CCCN(C(c3ccccc3)c3ccccc3)CC2)c1[N+](=O)[O-]`, 3.45 µM.
